# Source: patent US10940139B2, “Compounds that interact with the Ras superfamily for the treatment of cancers, inflammatory diseases, rasopathies, and fibrotic disease” (Shy Therapeutics LLC, priority 2017, dated 2021)
# Like-named read-outs stand apart in the source and are kept apart here.
# Key:
# [1] = test system: MIA-PACA2 pancreatic cancer cell lines; assay: Cell proliferation assay, alternate assay conditions (DAPI fluorescence); assay type: cell-based; conditions: Homo sapiens, MIA PaCa-2; for inhibition at 10 µM: * = tested at 10 μM, alternate conditions, MIA-PACA2; for IC50: MIA-PACA2, same assay as the % inhibition (alternate conditions)
# Method: Cell lines: Tumor-derived pancreatic cancer cell lines MIA-PACA2 were purchased from ATCC and grown in complete DMEM-High Glucose medium supplemented with penicillin (100 U/mL), streptomycin (100 μg/mL), and 10% heat-inactivated FBS at 37° C. in a humidified incubator with 5% CO2.
# Method: Cells are plated at 4000 cells/well density in 96-wells plate. The next day tested small molecules are added to the cells in the final concentration of 10 μM in the presence of 0.3% DMSO and 10% FBS. After small molecules addition, cells are incubated for 4 days at 37° C. in a humidified incubator with 5% CO2. For IC50 value determination, serial dilutions of compounds were added to cells under the same conditions.
# Assay: At the end of the incubation period, cell cultures are fixed with a 50-50 mixture (v/v) acetone-methanol for 10 minutes at −20° C., followed by rehydration in PBS for 10 minutes at room temperature. After rehydration, cells are stained with DAPI (1 μg/ml) in PBS for 10 minutes at room temperature, followed by 3 washes with PBS. After staining, DAPI fluorescence is recorded (358 nm excitation/461 nm emission) with the 96-well plate reader Molecular Devices Spectramax M3; degree of small mole-cule-dependent proliferation inhibition is calculated from raw data assuming No Serum cells value as 100%.
# [2] = target: KRas G12D mutant protein (Homo sapiens (Human), UniProt P01116, G12D); assay: Ras GTP binding domain inhibition assay (labeled GTP); conditions: 20 μM compound
# KRas G12D mutant protein, sequence (P01116-2 other isoform, or with tags, fused parts or gaps G12D): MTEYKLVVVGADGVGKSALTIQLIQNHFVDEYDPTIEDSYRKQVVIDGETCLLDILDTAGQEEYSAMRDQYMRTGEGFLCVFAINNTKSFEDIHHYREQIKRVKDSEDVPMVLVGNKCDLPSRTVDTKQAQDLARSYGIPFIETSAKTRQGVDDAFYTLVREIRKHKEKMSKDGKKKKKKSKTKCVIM
# [3] = target: KRas G12C mutant (Homo sapiens (Human), UniProt P01116, G12C); assay: as above; conditions: 20 μM compound
# KRas G12C mutant, sequence (P01116-2 other isoform, or with tags, fused parts or gaps G12C): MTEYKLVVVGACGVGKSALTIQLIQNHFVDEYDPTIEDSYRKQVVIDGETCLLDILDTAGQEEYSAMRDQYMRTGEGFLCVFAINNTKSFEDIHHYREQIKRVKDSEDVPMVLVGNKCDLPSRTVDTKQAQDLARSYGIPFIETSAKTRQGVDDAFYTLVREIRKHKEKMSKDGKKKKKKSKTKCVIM
# Method in brief: (§1)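 Ni-plate capture of His-KRas (3-10 μg/ml, o/n, 4° C); Tris pH 7.5/MgCl2/DTT buffer, 1% DMSO. Cpd 20 μM or titration, 3 h RT. Cy3/Cy5-GTP 45 min RT, wash, fluorescence of bound GTP.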
# [4] = target: KRas wild type (Homo sapiens (Human), UniProt P01116); assay: as above; conditions: 20 μM compound
# KRas wild type, sequence (P01116-2 other isoform, or with tags, fused parts or gaps): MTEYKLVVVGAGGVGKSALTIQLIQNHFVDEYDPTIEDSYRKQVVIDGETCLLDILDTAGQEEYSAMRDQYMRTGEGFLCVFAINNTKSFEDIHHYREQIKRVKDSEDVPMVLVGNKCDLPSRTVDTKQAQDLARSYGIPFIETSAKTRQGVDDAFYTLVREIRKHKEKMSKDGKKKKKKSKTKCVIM
# Method in brief: as §1
# [5] = target: KRas G12C/Q61H double mutant (Homo sapiens (Human), UniProt P01116, G12C/Q61H); assay: as above; conditions: 20 μM compound
# KRas G12C/Q61H double mutant, sequence (P01116-2 other isoform, or with tags, fused parts or gaps G12C/Q61H): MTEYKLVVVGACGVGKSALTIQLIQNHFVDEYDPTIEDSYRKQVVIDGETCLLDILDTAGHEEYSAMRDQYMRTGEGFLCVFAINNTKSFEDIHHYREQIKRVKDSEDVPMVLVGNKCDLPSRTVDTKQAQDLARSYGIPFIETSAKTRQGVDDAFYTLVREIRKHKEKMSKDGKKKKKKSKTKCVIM
# Method in brief: as §1
# [6] = target: KRas Q61H mutant (Homo sapiens (Human), UniProt P01116, Q61H); assay: as above; conditions: 20 μM compound
# KRas Q61H mutant, sequence (P01116-2 other isoform, or with tags, fused parts or gaps Q61H): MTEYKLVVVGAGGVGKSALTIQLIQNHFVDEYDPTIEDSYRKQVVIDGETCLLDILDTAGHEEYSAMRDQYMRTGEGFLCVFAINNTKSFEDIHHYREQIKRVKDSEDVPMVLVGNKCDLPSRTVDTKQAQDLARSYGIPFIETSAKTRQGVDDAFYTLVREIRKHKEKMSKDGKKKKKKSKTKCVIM
# Method in brief: as §1
# [7] = target: KRas G12D/Q61H double mutant (Homo sapiens (Human), UniProt P01116, G12D/Q61H); assay: as above; conditions: 20 μM compound
# KRas G12D/Q61H double mutant, sequence (P01116-2 other isoform, or with tags, fused parts or gaps G12D/Q61H): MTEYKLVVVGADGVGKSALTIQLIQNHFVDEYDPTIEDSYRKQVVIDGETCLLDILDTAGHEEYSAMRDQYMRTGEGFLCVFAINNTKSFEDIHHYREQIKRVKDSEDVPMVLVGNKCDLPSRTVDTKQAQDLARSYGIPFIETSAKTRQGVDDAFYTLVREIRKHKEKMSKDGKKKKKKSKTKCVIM
# Method in brief: as §1
# [8] = KRas G12D, read-out: % Inhibition at 20 μM of K-Ras mutant and wild-type protein, KRas G12D
# [9] = KRas G12C, read-out: % Inhibition at 20 μM of K-Ras mutant and wild-type protein, KRas G12C
# [10] = KRas wild type, read-out: % Inhibition at 20 μM of K-Ras mutant and wild-type protein, KRas wild type
# [11] = KRas G12C/Q61H double mutant, read-out: % Inhibition at 20 μM of K-Ras mutant and wild-type protein, KRas G12C Q61H
# [12] = KRas Q61H, read-out: % Inhibition at 20 μM of K-Ras mutant and wild-type protein, KRas Q61H
# [13] = KRas G12D/Q61H double mutant, read-out: % Inhibition at 20 μM of K-Ras mutant and wild-type protein, KRas G12D Q61H
# [14] = read-out: % Inhibition at 20 μM KRas G12D
# [15] = read-out: % Inhibition at 20 μM KRas G12C
# [16] = read-out: % Inhibition at 20 μM KRas wild type
# [17] = read-out: % Inhibition at 20 μM KRas G12C Q61H
# [18] = read-out: % Inhibition at 20 μM KRas Q61H
# [19] = read-out: % Inhibition at 20 μM KRas G12D Q61H
smiles,measurement,setting,value
Nc1cccc(-c2csc3c(O)nc(-c4ccccn4)nc23)n1 [drawing 1816],inhibition at 10 µM,[1],76 to 100%
COCCNc1nc(-c2cn(C)cn2)nc2sc(-c3ccncc3)c(-c3ccccc3)c12 [drawing 1832],inhibition at 10 µM,[1],76 to 100%
Cn1ccnc1-c1nc(O)c2scc(-c3ccc(C(C)(C)C)cc3)c2n1 [drawing 1921],inhibition at 10 µM,[1],76 to 100%
COCCNc1nc(-c2nccn2C)nc2sc(-c3ccccc3)c(-c3ccc(OC)cc3)c12 [drawing 1891],inhibition at 10 µM,[1],76 to 100%
same,IC50,[1],501 to 1000 nM
Oc1nc(-c2ncccn2)nc2c(-c3cccc(C(F)(F)F)c3)csc12 [drawing 1910],inhibition at 10 µM,[1],76 to 100%
Cc1sc2c(O)nc(-c3ccccn3)nc2c1-c1ccncc1 [drawing 1806],inhibition at 10 µM,[1],76 to 100%
COCCNc1nc(-c2ccncn2)nc2sc(-c3ccccc3)c(-c3ccccc3)c12 [drawing 1876],inhibition at 10 µM,[1],51 to 75%
Nc1nc(-c2ccccn2)nc(C(=O)NCCc2ccncc2)c1Oc1ccccc1 [drawing 1853],inhibition at 10 µM,[1],76 to 100%
Oc1nc(-c2ccccn2)nc(Oc2cccc(C(F)(F)F)c2)c1O [drawing 1860],inhibition at 10 µM,[1],76 to 100%
Oc1nc(-c2ccccn2)nc2c(CC3CNC3)csc12 [drawing 1821],inhibition at 10 µM,[1],25 to 50%
COCCNc1nc(-c2nccn2C)nc2sc(-c3ccccc3Cl)c(-c3ccccc3)c12 [drawing 1883],inhibition at 10 µM,[1],76 to 100%
same,IC50,[1],501 to 1000 nM
COc1nc(-c2ccccn2)nc2c1c(-c1ccccc1)nn2-c1ccccn1 [drawing 1842],inhibition at 10 µM,[1],76 to 100%
Cn1ccnc1-c1nc(O)c2scc(-c3cccc(Cl)c3)c2n1 [drawing 1919],inhibition at 10 µM,[1],76 to 100%
COC(=O)c1nc(-c2ccccn2)nc(O)c1O [drawing 1849],inhibition at 10 µM,[1],25 to 50%
CC(C)(C)c1sc2c(O)nc(-c3ccccn3)nc2c1Br [drawing 1856],inhibition at 10 µM,[1],76 to 100%
Cn1ccnc1-c1nc(NCCCO)c2c(-c3ccccc3)c(-c3ccccc3)sc2n1 [drawing 1881],inhibition at 10 µM,[1],76 to 100%
COC(C)(C)c1ccc(-c2csc3c(O)nc(-c4nccn4C)nc23)cc1 [drawing 1920],inhibition at 10 µM,[1],76 to 100%
CCC(C)Nc1nc(-c2ccccn2)nc2sc(-c3ccncc3)c(-c3ccccc3)c12 (stereo not drawn),inhibition at 10 µM,[1],51 to 75%
CC(O)CNc1nc(-c2nccn2C)nc2sc(-c3ccccc3)c(-c3ccccc3)c12 (stereo not drawn) [drawing 1871],inhibition at 10 µM,[1],76 to 100%
Oc1nc(-c2ccccn2)nc2c(C3CCCC3)csc12 [drawing 1812],inhibition at 10 µM,[1],76 to 100%
Oc1nc(-c2ccccn2)nc2c1c(-c1ccccc1)nn2-c1ccccn1 [drawing 1841],inhibition at 10 µM,[1],76 to 100%
COc1cnc(CNC(=O)c2csc3nc(-c4ccccn4)nc(N)c23)[nH]c1=O [drawing 1819],inhibition at 10 µM,[1],0%
Oc1nc(-c2ccccn2)nc2c(-c3ccccc3)c(-c3ccncc3)sc12 [drawing 1850],inhibition at 10 µM,[1],76 to 100%
Cn1ccnc1-c1nc(O)c2sc(-c3ccccc3)c(-c3ccccc3)c2n1 [drawing 1890],inhibition at 10 µM,[1],51 to 75%
NC(=O)C1CCCN1C(=O)c1cccc(-c2cc3nc(N)nc(O)c3s2)c1 (stereo not drawn) [drawing 1846],inhibition at 10 µM,[1],51 to 75%
Cn1ccnc1-c1nc(O)c2c(-c3ccccc3)c(-c3ccccc3)sc2n1 [drawing 1838],inhibition at 10 µM,[1],76 to 100%
Cn1cnc(-c2nc(O)c3sc(-c4ccncc4)c(-c4ccccc4)c3n2)c1 [drawing 1851],inhibition at 10 µM,[1],76 to 100%
OCC1(c2ccc(-c3nc(-c4ccccn4)nc(O)c3Oc3ccccc3)cc2)CC1 [drawing 1836],inhibition at 10 µM,[1],76 to 100%
COc1nc(-c2ccccn2)nc(Oc2cccc(C(F)(F)F)c2)c1OC [drawing 1854],inhibition at 10 µM,[1],76 to 100%
Cn1ccnc1-c1nc(NCCOC(F)(F)F)c2c(-c3ccccc3)c(-c3ccccc3)sc2n1 [drawing 1870],inhibition at 10 µM,[1],76 to 100%
COc1ccc(-c2csc3c(O)nc(-c4nccn4C)nc23)cn1 [drawing 1915],inhibition at 10 µM,[1],76 to 100%
Oc1nc(-c2ccccn2)nc2c(C3CC3)csc12 [drawing 3518],inhibition at 20 µM,[2]; [8],51 to 75%
same,inhibition at 20 µM,[3]; [9],25 to 50%
same,inhibition at 20 µM,[4]; [10],25 to 50%
same,inhibition at 20 µM,[5]; [11],1 to 25%
same,inhibition at 20 µM,[6]; [12],25 to 50%
same,inhibition at 20 µM,[7]; [13],25 to 50%
COCc1ccc(-c2csc3c(O)nc(-c4ccccn4)nc23)cc1F [drawing 2846],inhibition at 20 µM,[2]; [14],51 to 75%
same,inhibition at 20 µM,[3]; [15],51 to 75%
same,inhibition at 20 µM,[4]; [16],25 to 50%
same,inhibition at 20 µM,[5]; [17],51 to 75%
same,inhibition at 20 µM,[6]; [18],51 to 75%
same,inhibition at 20 µM,[7]; [19],51 to 75%
Oc1nc(-c2ccccn2)nc(Oc2cccc(C(F)(F)F)c2)c1O [drawing 3558],inhibition at 20 µM,[2]; [8],51 to 75%
same,inhibition at 20 µM,[3]; [9],51 to 75%
same,inhibition at 20 µM,[4]; [10],1 to 25%
same,inhibition at 20 µM,[5]; [11],76 to 100%
same,inhibition at 20 µM,[6]; [12],51 to 75%
same,inhibition at 20 µM,[7]; [13],51 to 75%
Oc1nc(-c2ccccn2)nc2c(-c3ccc(F)cc3F)csc12 [drawing 2871],inhibition at 20 µM,[2]; [14],51 to 75%
same,inhibition at 20 µM,[3]; [15],25 to 50%
same,inhibition at 20 µM,[4]; [16],25 to 50%
same,inhibition at 20 µM,[5]; [17],51 to 75%
same,inhibition at 20 µM,[6]; [18],51 to 75%
same,inhibition at 20 µM,[7]; [19],51 to 75%
CCC(C)c1csc2c(OC)nc(-c3ccccn3)nc12 (stereo not drawn) [drawing 3471],inhibition at 20 µM,[2]; [8],25 to 50%
same,inhibition at 20 µM,[3]; [9],25 to 50%
same,inhibition at 20 µM,[4]; [10],25 to 50%
same,inhibition at 20 µM,[5]; [11],51 to 75%
same,inhibition at 20 µM,[6]; [12],51 to 75%
same,inhibition at 20 µM,[7]; [13],51 to 75%
COc1ccccc1-c1csc2c(O)nc(-c3ccccn3)nc12 [drawing 2870],inhibition at 20 µM,[2]; [14],51 to 75%
same,inhibition at 20 µM,[3]; [15],25 to 50%
same,inhibition at 20 µM,[4]; [16],25 to 50%
same,inhibition at 20 µM,[5]; [17],25 to 50%
same,inhibition at 20 µM,[6]; [18],25 to 50%
same,inhibition at 20 µM,[7]; [19],25 to 50%
O=C(c1csc2c(O)nc(-c3ccccn3)nc12)N1CC2CC1CN2c1ccccc1 (stereo not drawn) [drawing 2838],inhibition at 20 µM,[2]; [14],51 to 75%
same,inhibition at 20 µM,[3]; [15],25 to 50%
same,inhibition at 20 µM,[4]; [16],25 to 50%
same,inhibition at 20 µM,[5]; [17],76 to 100%
same,inhibition at 20 µM,[6]; [18],76 to 100%
same,inhibition at 20 µM,[7]; [19],76 to 100%
Oc1nc(-c2ccccn2)nc2c(C3CCCC3)csc12 [drawing 3495],inhibition at 20 µM,[2]; [8],51 to 75%
same,inhibition at 20 µM,[3]; [9],25 to 50%
same,inhibition at 20 µM,[4]; [10],25 to 50%
same,inhibition at 20 µM,[5]; [11],51 to 75%
same,inhibition at 20 µM,[6]; [12],51 to 75%
same,inhibition at 20 µM,[7]; [13],51 to 75%
Cc1cnc(-c2ccccn2)nc1NC(=O)C1CCCc2cc(C#N)ccc21 (stereo not drawn) [drawing 2827],inhibition at 20 µM,[2]; [14],25 to 50%
same,inhibition at 20 µM,[3]; [15],25 to 50%
same,inhibition at 20 µM,[4]; [16],51 to 75%
same,inhibition at 20 µM,[5]; [17],51 to 75%
same,inhibition at 20 µM,[6]; [18],51 to 75%
same,inhibition at 20 µM,[7]; [19],51 to 75%
